Source: ChEMBL document CHEMBL3804784, “Sulfatase inhibitors for recidivist breast cancer treatment: A chemical review” (Eur J Med Chem, 2016)
Each block holds one compound with its values, some of them ahead of it.

Columns and labels:
Rattus norvegicus = experiment: In vivo inhibition of aromatase in pregnant mare's serum gonadotrophin-stimulated ovarian aromatase rat model at 10 mg/kg, po relative to control; type: functional
Steryl-sulfatase [1] = target: T1, Steryl-sulfatase (Homo sapiens, UniProt P08842); experiment: Inhibition of human aryl sulfatase using p-nitrocatechol sulfate as substrate incubated for 30 mins by microplate reader analysis
T1 sequence (P08842 whole entry): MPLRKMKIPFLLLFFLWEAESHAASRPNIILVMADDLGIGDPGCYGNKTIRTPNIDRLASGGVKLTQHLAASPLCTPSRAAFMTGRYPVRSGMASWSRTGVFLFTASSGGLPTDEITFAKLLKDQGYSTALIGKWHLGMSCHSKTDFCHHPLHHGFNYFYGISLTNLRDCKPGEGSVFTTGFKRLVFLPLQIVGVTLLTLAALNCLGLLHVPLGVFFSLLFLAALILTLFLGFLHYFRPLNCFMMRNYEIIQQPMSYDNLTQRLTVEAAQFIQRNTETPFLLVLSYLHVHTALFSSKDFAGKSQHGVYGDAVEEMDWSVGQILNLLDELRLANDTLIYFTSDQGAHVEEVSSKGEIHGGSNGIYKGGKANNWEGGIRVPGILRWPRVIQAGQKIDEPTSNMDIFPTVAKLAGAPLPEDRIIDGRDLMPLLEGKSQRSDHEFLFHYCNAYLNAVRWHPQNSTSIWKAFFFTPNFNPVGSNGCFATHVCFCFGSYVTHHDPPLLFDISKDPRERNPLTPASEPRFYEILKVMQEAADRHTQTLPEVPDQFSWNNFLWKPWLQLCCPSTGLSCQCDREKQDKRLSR

Steryl-sulfatase [2] = target: T1, Steryl-sulfatase; experiment: Inhibition of estrone sulfatase in human JEG-3 cells using [3H]-estrone sulphate as substrate incubated for 1 hr by liquid scintillation counting method; type: cell-based
Steryl-sulfatase [3] = target: T1, Steryl-sulfatase; experiment: Inhibition of estrone sulfatase (unknown origin) transfected in HEK293 cells using [3H]E1S as substrate incubated for 2 hrs by liquid scintillation counting method; type: cell-based
Steryl-sulfatase [4] = target: T1, Steryl-sulfatase; experiment: Inhibition of recombinant human estrone sulfatase expressed in CHO cells using 4-methylumbelliferyl sulfate as substrate by fluorimetric assay; type: cell-based
Steryl-sulfatase [5] = target: T1, Steryl-sulfatase; experiment: Inhibition of recombinant human estrone sulfatase using 4-methylumbelliferyl sulfate as substrate by colorimetric assay
Steryl-sulfatase [6] = target: T1, Steryl-sulfatase; experiment: Non-competitive inhibition of human placental microsomal estrone sulfatase using [3H]E1S as substrate incubated for 20 mins by Lineweaver-Burk plot analysis
Steryl-sulfatase [7] = target: T1, Steryl-sulfatase; experiment: Inhibition of placental microsomal estrone sulfatase (unknown origin) using [3H]-estrone sulphate as substrate incubated for 20 mins by scintillation counting method
Steryl-sulfatase [8] = target: T1, Steryl-sulfatase; experiment: Inhibition of human placental microsomal estrone sulfatase using [3H]E1S as substrate incubated for 30 mins
Steryl-sulfatase [9] = target: T1, Steryl-sulfatase; experiment: Reversible inhibition of human estrone sulfatase using 4-methylumbelliferyl sulfate as substrate by fluorimetric assay
Steryl-sulfatase [10] = target: T1, Steryl-sulfatase; experiment: Inhibition of estrone sulfatase (unknown origin) transfected in HEK293 cells using E1S as substrate; type: cell-based

Structure (SMILES): N#Cc1ccc(N(Cc2ccc(OS(N)(=O)=O)c(Br)c2)n2cnnc2)cc1
inhibition in vivo at 10 mg/kg (Rattus norvegicus): 82%

Structure (SMILES): O=C(O)c1ccc2oc(C34CC5CC(CC(C5)C3)C4)cc(=O)c2c1
IC50 (Steryl-sulfatase [4]): > 180 nM
IC50 (Steryl-sulfatase [5]): > 530 nM

Structure (SMILES): O=C(CO)c1ccc2oc(C34CC5CC(CC(C5)C3)C4)cc(=O)c2c1
IC50 (Steryl-sulfatase [4]): > 180 nM
IC50 (Steryl-sulfatase [5]): > 530 nM

Structure (SMILES): O=C(O)C(=O)c1ccc2oc(C34CC5CC(CC(C5)C3)C4)cc(=O)c2c1
IC50 (Steryl-sulfatase [4]): > 180 nM
IC50 (Steryl-sulfatase [5]): > 530 nM

Structure (SMILES): O=Cc1ccc2oc(C34CC5CC(CC(C5)C3)C4)cc(=O)c2c1
IC50 (Steryl-sulfatase [4]): > 180 nM
IC50 (Steryl-sulfatase [5]): > 530 nM

Structure (SMILES): COc1c2c(c(O)c3c1C(=O)c1c(cc(O)c(C)c1O)C3=O)-c1c(cc(/C=N/NC(=O)NC3CCCCC3)c(C(=O)O)c1O)CC2
Ki (Steryl-sulfatase [6]): 350 nM

Structure (SMILES): N#Cc1ccc2sc(C34CC5CC(CC(C5)C3)C4)cc(=O)c2c1
IC50 (Steryl-sulfatase [4]): > 180 nM
IC50 (Steryl-sulfatase [5]): > 530 nM

Structure (SMILES): C[C@]12CC[C@@H]3c4ccc(OS(N)(=O)=O)cc4CC[C@H]3[C@@H]1CC(=O)NC2=O
IC50 (Steryl-sulfatase [8]): 1 nM

Structure (SMILES): CCCCN1C(=O)C[C@H]2[C@@H]3CCc4cc(OS(N)(=O)=O)ccc4[C@H]3CC[C@]2(C)C1=O
IC50 (Steryl-sulfatase [8]): 1 nM

Structure (SMILES): CCCCCCN1C(=O)C[C@H]2[C@@H]3CCc4cc(OS(N)(=O)=O)ccc4[C@H]3CC[C@]2(C)C1=O
IC50 (Steryl-sulfatase [8]): 1 nM

Structure (SMILES): CC(C)(C)c1ccc(CN2C(=O)C[C@H]3[C@@H]4CCc5cc(OS(N)(=O)=O)ccc5[C@H]4CC[C@]3(C)C2=O)cc1
IC50 (Steryl-sulfatase [8]): 1 nM

Structure (SMILES): C[C@]12CC[C@@H]3c4ccc(OS(N)(=O)=O)cc4CC[C@H]3[C@@H]1CC(=O)N(Cc1ccccc1)C2=O
IC50 (Steryl-sulfatase [8]): 1 nM

Structure (SMILES): C=CCN1C(=O)C[C@H]2[C@@H]3CCc4cc(OS(N)(=O)=O)ccc4[C@H]3CC[C@]2(C)C1=O
IC50 (Steryl-sulfatase [8]): 1 nM

Structure (SMILES): CSc1cc2c(cc1OS(N)(=O)=O)CC[C@@H]1[C@@H]2CC[C@]2(C)C(=O)CC[C@@H]12
IC50 (Steryl-sulfatase [8]): 44 nM

Structure (SMILES): COc1cc2c(cc1OS(N)(=O)=O)CC[C@@H]1[C@@H]2CC[C@@]2(C)[C@H]1CC[C@@]2(O)Cc1ccccc1
IC50 (Steryl-sulfatase [10]): 0.024 nM

The remaining lines, values ahead:

IC50 (Steryl-sulfatase [1]): 970 nM
Structure (SMILES): NS(=O)(=O)Oc1ccc2nc(C=C3C4CC5CC(C4)CC3C5)oc2c1

IC50 (Steryl-sulfatase [2]): 30 nM
Structure (SMILES): CC(C)(C)c1ccc(C[C@]2(O)CC[C@H]3[C@@H]4CCc5cc(OS(N)(=O)=O)ccc5[C@H]4CC[C@@]32C)cc1

IC50 (Steryl-sulfatase [3]): 1.4 nM
Structure (SMILES): C[C@]12CC[C@@H]3c4ccc(OS(N)(=O)=O)cc4CC[C@H]3[C@@H]1CC[C@@]2(O)Cc1ccccc1

IC50 (Steryl-sulfatase [4]): > 180 nM
IC50 (Steryl-sulfatase [5]): > 530 nM
Structure (SMILES): NC(=O)c1ccc2oc(C34CC5CC(CC(C5)C3)C4)cc(=O)c2c1

IC50 (Steryl-sulfatase [4]): > 180 nM
IC50 (Steryl-sulfatase [5]): > 530 nM
Structure (SMILES): COC(=O)c1ccc2oc(C34CC5CC(CC(C5)C3)C4)cc(=O)c2c1

IC50 (Steryl-sulfatase [7]): 3400 nM
Structure (SMILES): CCCCCCCC(=O)c1ccc(OS(N)(=O)=O)cc1

IC50 (Steryl-sulfatase [7]): 3400 nM
Structure (SMILES): CCCCC(=O)c1ccc(OS(N)(=O)=O)cc1

IC50 (Steryl-sulfatase [4]): > 180 nM
IC50 (Steryl-sulfatase [5]): > 530 nM
Structure (SMILES): O=C(O)Cc1ccc2oc(C34CC5CC(CC(C5)C3)C4)cc(=O)c2c1

IC50 (Steryl-sulfatase [4]): > 180 nM
IC50 (Steryl-sulfatase [5]): > 530 nM
Structure (SMILES): O=c1cc(C23CC4CC(CC(C4)C2)C3)oc2ccc(CO)cc12

IC50 (Steryl-sulfatase [2]): 30 nM
Structure (SMILES): COc1cc(C[C@]2(O)CC[C@H]3[C@@H]4CCc5cc(OS(N)(=O)=O)ccc5[C@H]4CC[C@@]32C)cc(OC)c1

Ki (Steryl-sulfatase [9]): 250 nM
Structure (SMILES): C[C@]12CC[C@@H]3c4ccc(B(O)O)cc4CC[C@H]3[C@@H]1CC[C@@]2(O)Cc1ccccc1

IC50 (Steryl-sulfatase [3]): 21 nM
Structure (SMILES): C[C@]12CC[C@@H]3c4ccc(O)cc4CC[C@H]3[C@@H]1CC[C@@]2(O)Cc1ccc(-c2ccccc2C(F)(F)F)cc1

IC50 (Steryl-sulfatase [2]): 30 nM
Structure (SMILES): COc1ccc(C[C@]2(O)CC[C@H]3[C@@H]4CCc5cc(OS(N)(=O)=O)ccc5[C@H]4CC[C@@]32C)c(OC)c1OC

IC50 (Steryl-sulfatase [2]): 30 nM
Structure (SMILES): Cc1ccc(C[C@]2(O)CC[C@H]3[C@@H]4CCc5cc(OS(N)(=O)=O)ccc5[C@H]4CC[C@@]32C)cc1

IC50 (Steryl-sulfatase [2]): 30 nM
Structure (SMILES): C[C@]12CC[C@@H]3c4ccc(OS(N)(=O)=O)cc4CC[C@H]3[C@@H]1CC[C@@]2(O)Cc1ccc(-c2ccccc2)cc1
